In the supplement of paper PMC6045584:
± gives the standard deviation of the averaged measurements.

compound: O=c1[nH]cc(F)c(=O)[nH]1 [FLUOROURACIL]; assay: surviving fraction relative to DMSO-only wells; higher = less growth inhibition; settings: 5 nM; exposure time: 5 days
Outline: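 Tumour cell lines in log phase were plated in 384-well plates at 250–500 cells per well, then, after 24 hours, exposed continuously for five days to inhibitors at 0.5, 1, 5, 10, 50, 100, 500 and 1000 nM. Viability came from CellTiter-Glo luminescence, and surviving fraction is that signal normalised to the median of DMSO-only wells. Plates were read after 10 minutes at room temperature, and each line, screened three times, was kept only when replicate Pearson r was >0.7 and median Z' was >0.3.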

Test System | surviving fraction
SCC36 HEADNECK | 1.06 ± 0.13
OS25HAL BONE | 0.985 ± 0.019
HCC1806 BREAST | 1.08 ± 0.043
HU09 BONE | 1.1 ± 0.022
SG43 HEADNECK | 0.979 ± 0.25
U2OS BONE | 1.083 ± 0.0072
HOSMNG BONE | 0.933 ± 0.024
CASKI CERVIX | 0.935 ± 0.04
SUM44 BREAST | 1.02 ± 0.16
MDAMB231 BREAST | 0.975 ± 0.039
CAL51 BREAST | 0.944 ± 0.048
MDAMB436 BREAST | 0.964 ± 0.12
HSSYII SYNOVIAL | 0.992 ± 0.075
RDES SOFT TISSUE | 1.06 ± 0.047
MDAMB157 BREAST | 1.05 ± 0.055
CHLA90 AUTONOMIC GANGLIA | 0.939 ± 0.059
CADOES1 SOFT TISSUE | 0.907 ± 0.13
SG31 HEADNECK | 1.05 ± 0.085
SCC47 HEADNECK | 1.22 ± 0.15
S68 BREAST | 1.06 ± 0.29
SNU475 LIVER | 0.99 ± 0.046

Test System | surviving fraction
22RV1 PROSTATE | 1.1 ± 0.11
SG32 HEADNECK | 1.21 ± 0.34
SCC003 HEADNECK | 1.03 ± 0.024
JURKAT HAEMATOPOIETIC AND LYMPHOID TISSUE | 1.09 ± 0.049
HT1080 SOFT TISSUE | 1.07 ± 0.0075
CAL120 BREAST | 0.989 ± 0.034
MCF7 BREAST | 0.93 ± 0.035
MFM223 BREAST | 1.18 ± 0.22
LNCAP PROSTATE | 1.07 ± 0.11
PCI30 HEADNECK | 1.08 ± 0.058
OSHN BONE | 1.061 ± 0.007
SG28 HEADNECK | 0.944 ± 0.078
HOS BONE | 1.02 ± 0.015
HUO3N1 BONE | 1.09 ± 0.031
BT20 BREAST | 1.25 ± 0.058
SJSA1 BONE | 1.59 ± 0.11
JIMT1 BREAST | 0.979 ± 0.033
HCC78 LUNG | 1.19 ± 0.12
NY BONE | 1.03 ± 0.034
NOS1 BONE | 1.09 ± 0.12

same assay, conditions: 10 nM; exposure time: 5 days

Test System | surviving fraction
SCC36 HEADNECK | 1.05 ± 0.031
OS25HAL BONE | 0.977 ± 0.014
HCC1806 BREAST | 0.973 ± 0.081
HU09 BONE | 1.1 ± 0.038
SG43 HEADNECK | 1.06 ± 0.3
U2OS BONE | 1.05 ± 0.05
HOSMNG BONE | 0.962 ± 0.043
CASKI CERVIX | 0.941 ± 0.068
SUM44 BREAST | 0.956 ± 0.12
MDAMB231 BREAST | 0.972 ± 0.022
CAL51 BREAST | 0.971 ± 0.016
MDAMB436 BREAST | 0.846 ± 0.11
HSSYII SYNOVIAL | 0.949 ± 0.043
RDES SOFT TISSUE | 0.912 ± 0.048
MDAMB157 BREAST | 1.05 ± 0.1
CHLA90 AUTONOMIC GANGLIA | 1 ± 0.13
CADOES1 SOFT TISSUE | 0.963 ± 0.097
SG31 HEADNECK | 0.973 ± 0.11
SCC47 HEADNECK | 1.1 ± 0.043
S68 BREAST | 1.23 ± 0.21
SNU475 LIVER | 0.9607 ± 0.0047

Test System | surviving fraction
22RV1 PROSTATE | 0.946 ± 0.13
SG32 HEADNECK | 0.932 ± 0.029
SCC003 HEADNECK | 0.965 ± 0.044
JURKAT HAEMATOPOIETIC AND LYMPHOID TISSUE | 1.09 ± 0.016
HT1080 SOFT TISSUE | 1.07 ± 0.029
CAL120 BREAST | 0.979 ± 0.069
MCF7 BREAST | 0.893 ± 0.027
MFM223 BREAST | 1.096 ± 0.0076
LNCAP PROSTATE | 1.05 ± 0.043
PCI30 HEADNECK | 1.1 ± 0.058
OSHN BONE | 1.001 ± 0.0042
SG28 HEADNECK | 1.06 ± 0.036
HOS BONE | 0.99 ± 0.015
HUO3N1 BONE | 1.07 ± 0.05
BT20 BREAST | 1.16 ± 0.07
SJSA1 BONE | 1.52 ± 0.2
JIMT1 BREAST | 0.9068 ± 0.0066
HCC78 LUNG | 0.986 ± 0.062
NY BONE | 1.01 ± 0.028
NOS1 BONE | 1.14 ± 0.11
